# Legend:
# [1] = Solubility in methanol/water; assay type: physicochemical; settings: for solubility: 2/1 (v/v) methanol/water, 0 °C, organic solvent or mixture, thermodynamic from solid
# Protocol: The solubility of Form I in 2/1 (v/v) methanol/water at 0° C. was determined to be 0.9±0.1 mg/ml. The solubility of Form II in 2/1 (v/v) methanol/water at 0C was determined to be 1.3±0.2 mg/ml.
# Thermal stability = assay type: physicochemical
# Hygroscopicity = assay type: physicochemical
# cisplatin-induced emesis = assay: Ferret model of cisplatin-induced emesis; assay type: in vivo; settings: model of Tattersall et al.
# [2] = Vapor pressure by Knudsen effusion techniques; assay type: physicochemical; settings: at elevated temperatures, Form I compared with Form II
# Excerpt: The vapor pressures of Form I and Form II at elevated temperatures were similar when examined with Knudsen effusion techniques.
solubility ([1]; 2/1 (v/v) methanol/water at 0C) [µg/mL],thermal stability (Thermal stability; as a neat solid),thermal stability (Thermal stability; in hydroalcoholic solution),hygroscopicity (Hygroscopicity),vapor pressures [2],ratio of the solubilities [1],solubility ([1]; 2/1 (v/v) methanol/water at 0° C.) [µg/mL],"more stable than Form II by ([1]; thermodynamic stability difference between polymorphs, from solubility ratio) [kcal/mol]",Compound,retching and vomiting induced by cisplatin (cisplatin-induced emesis)
1300 ± 200,–,–,–,–,–,–,–,CC(OC1OCCN(Cc2n[nH]c(=O)[nH]2)[C@H]1c1ccc(F)cc1)c1cc(C(F)(F)F)cc(C(F)(F)F)c1 (stereo partly drawn) [Form II],–
–,high degree of thermal stability,high degree of thermal stability,non-hygroscopic,similar,1.4,900 ± 100,0.2,CC(OC1OCCN(Cc2n[nH]c(=O)[nH]2)[C@H]1c1ccc(F)cc1)c1cc(C(F)(F)F)cc(C(F)(F)F)c1 (stereo partly drawn) [Form I],attenuate the retching and vomiting induced by cisplatin

# Reference: US6432953B1, “Polymorphic form of a tachykinin receptor antagonist” (Merck & Co., Inc., priority 1997, dated 2002)
